Data from US6495171B2, “Interleukin-4 production inhibitors” (Kao Corporation, priority 1999, dated 2002).

Assays:
[1] = tested on: IL-4 production; test: Measurement of IL-4 production inhibiting ability (KLH-stimulated lymphocytes, ELISA); format: cell-based; conditions: lymph node lymphocytes of KLH-sensitized Balb/c mice, KLH 10 μg/mL, 3 days, IL-4 in supernatant by ELISA; for IC50: Mus musculus, Lymphocyte, 72 h, read-out: IC50 (concentrations at which IL-4 yields were inhibited by 50%)
Procedure: A 4 mg/mL solution of KLH (Keyhole Limpet Hemocyanin; product of Pierce Chemical Company) and Freund complete adjuvant FCA (Bacto Adjuvant Complete Freund; product of DIFCO) were mixed and emulsified at a volume ratio of 1:1. The resulting emulsion was subcutaneously injected at 200 μL/head to the foreleg paws and hind leg paws of Balb/c mice (female, 8 to 12 weeks old), whereby the mice were sensitized. About 7 days later, axillary and popliteal lymph nodes were excised. After the lymph nodes were washed in PBS, they were loosened between two slide glasses in RPMI medium which had been prepared by adding kanamycin and β-mercapto-ethanol to “RPMI 1640 Medium” (product of BRL) such that their final concentrations became 100 μg/mL and 100 μM, respectively, whereby a suspension of lymphocytes was prepared. The lymphocyte suspension was centrifuged twice at 1,000 rpm for 5 minutes, followed by suspension in the RPMI medium added with 10% FCS. The lymphocytes were spread at 4×10^5 lymphocytes/well over 96-well plates. Individual compounds or essential oils, which had been prepared at varied concentrations with 10% FCS-added RMPI medium, were added within a final concentration range of from 0.01 to 100 μg/mL. Subsequent to incubation at 37° C. for about 30 minutes in the presence of 5% CO2, KLH was added to give a final concentration of 10 μg/mL. After incubation at 37° C. for 3 days in the presence of 5% CO2, IL-4 in each supernatant was quantitated by ELISA.
For the ELISA quantitation, “Mice IL-4 ELISA Kit” (product of Amersham Corp.) was used. Following a protocol attached to the kit, the quantitation was conducted using recombinant IL-4 as a standard substance. IL-4 production inhibition rates of the individual compounds at the varied concentrations were calculated [100-(IL-4 yield when the sample was added/IL-4 yield in a control added only with the culture medium)×100]. From the IL-4 production inhibition rates, IC50 values (concentrations at which IL-4 yields were inhibited by 50%) were determined.

[2] = tested on: allergy to house dust mite antigen; test: Effects on allergy to house dust mite antigen (ear swelling); format: in vivo, Balb/c mice; conditions: for Swelling inhibition rate (%): 20 μL topically on ear, 24 h after challenge; for inhibitory effects for allergy to the house dust mite antigen (in words): concentrations of 0.1% and 1.0%, statistically significant at 1% or 5% significance level
Procedure: Tape stripping was applied 8 times with an adhesive cellophane tape (product of Nichiban Co., Ltd.) to shaved abdominal parts of Balb/c mice (female). The abdominal parts were coated with 50-μL portions of a house dust mite antigen, which had been obtained by dialyzing an allergen scratch extract “DANI” (product of Torii Pharmaceutical Co., Ltd.) and then concentrating the dialyzate ten-fold by ultrafiltration, so that the mice were sensitized. One, four, five and six days later, 20 μL portions of cedrol, cumin oil and cedarwood oil of concentrations shown in Table 2 (prepared by dissolving them in 70% ethanol solution) were topically applied onto one ears, respectively, and the same amount of the solvent control (70% ethanol solution) was applied at the others. Seven days after the sensitization, the mice were challenged on the dorsal ear lobe by subcutaneous injection of 10 μL of the same angiten solution. To measure ear swelling caused by nonspecific stimulation with the house dust mite antigen, 10-μL portions of the house dust mite antigen were subcutaneously injected to one ear lobes of unsensitized mice. Three and twenty hours after the stimulation, the ear lobes of the anesthetized mice were covered with pieces of paper towel soaked with purified water of 40° C., respectively. After that, 20 μL portions of the individual compounds were topically applied to one ears, respectively, while to the other, the same amount of the solvent control were applied. Twenty-four hours after stimulation, the thicknesses of the ears were measured by a thickness gauge, and differences from the thicknesses of the corresponding ears before the stimulation were recorded as ear swellings. Each ear swelling inhibition rate (%) was determined by the following formula: [ear swelling (solvent control)−ear swelling (sample)]/[ear swelling (solvent control)−ear swelling (nonspecific stimulation by the house dust mite antigen)]×100. Differences in swelling between the ear applied with the solvent control and the corresponding ears applied with the samples, respectively, were statistically analyzed by t-test, and any difference with significance level lower than 5% was considered statistically significant.

| Compound | IC50 (concentrations at which IL-4 yields were inhibited by 50%) [1] | IC50 [1] | other results |
| --- | --- | --- | --- |
| Epiglobulol | 1.14 µg/mL |  |  |
| C[C@H]1CC[C@@]2(O)C(C)(C)[C@@H]3CC[C@@]2(C)[C@H]1C3 [Patchouli alcohol] | 0.72 µg/mL |  |  |
| Thujopsenol | 3.60 µg/mL |  |  |
| CC(C)=CCCC(C)CCO (stereo not shown) [Citronellol] |  | 37.3 µg/mL |  |
| CC1CCC(C(C)C)C(O)C1 (stereo not shown) [Menthol] |  | 19.6 µg/mL |  |
| CC(=O)O[C@]1(C)CC[C@@]23C[C@@H]1C(C)(C)[C@@H]2CC[C@H]3C [Cedryl acetate] |  | 0.78 µg/mL |  |
| CCOCC(O)COc1ccc(NC(=O)CC[S+](C)C)cc1 (stereo not shown) [Suplatast tosilate, reference compound] |  | 50 µg/mL |  |
| CC1(C)CCC[C@@]2(C)CC[C@](C)(O)CC=C12 [Widdrol] | 4.00 µg/mL |  |  |
| C[C@H]1CC[C@@H](C(C)(C)O)CC2=C1CC[C@@H]2C [Guaiol] | 0.68 µg/mL |  |  |
| CC(C)=CCCC(C)=CCCC(C)=CCO [Farnesol] |  | 0.59 µg/mL |  |
| C=CCc1ccc(O)c(OC)c1 [Eugenol] |  | 5.6 µg/mL |  |
| C[C@@H]1CC[C@H]2C(C)(C)[C@H]3C[C@@]12CC[C@@]3(C)O [Cedrol] |  | 3 µg/mL | Swelling inhibition rate (%) ([2]; Concentration 0.01 W/V %): 8%; Swelling inhibition rate (%) ([2]; Concentration 0.10 W/V %): 14%; Swelling inhibition rate (%) ([2]; Concentration 1.00 W/V %): 13%; inhibitory effects for allergy to the house dust mite antigen (in words) [2]: marked effects |
| Santalol | 2.40 µg/mL |  |  |
| C[C@@H]1CC[C@@H]2[C@@H]1[C@H]1[C@@H](CC[C@@]2(C)O)C1(C)C [Globulol] |  | 1.08 µg/mL | Swelling inhibition rate (%) ([2]; Concentration 0.01 W/V %): 11%; Swelling inhibition rate (%) ([2]; Concentration 0.10 W/V %): 19%; Swelling inhibition rate (%) ([2]; Concentration 1.00 W/V %): 26%; inhibitory effects for allergy to the house dust mite antigen (in words) [2]: marked effects |
| CC(C)c1cccc(=O)c(O)c1 [Hinokitiol] |  | 0.1 µg/mL |  |
| CC(=O)C1=C(C)[C@@H]2C[C@@]3(C1)[C@H](C)CC[C@H]3C2(C)C [Acetylcedrene] | 1.60 µg/mL |  |  |
| Cedrenol | 3.34 µg/mL |  |  |
